# Measured values published in paper PMC10539501 (Nature Communications, 2023).
# Starred links: 1 amine or outer side, 2 acyl side, 3 side chain; linkers in the order of their positions; H or OH if unused. Non-standard residues stand in square brackets, D forms with d. Residues, ends and D or L forms follow the SMILES beside them. X13 = CC[C@H](C)[C@H](NC(=S)[C@@H]1CCCN1[*:1])C(=O)[*:2]; X17 = CC[C@H](C)[C@H](N[*:1])C(=S)N1CCC[C@H]1C(=O)[*:2]; AlaΨ(CSNH)Ala = C[C@H](NC(=S)[C@H](C)N[*:1])C(=O)[*:2]; X11 = CC[C@H](C)[C@H](N[*:1])C(=S)N[C@@H](C)C(=O)[*:2]; X2 = CC(C)C[C@H](NC(=S)[C@@H](CC(C)C)N[*:1])C(=O)[*:2]; X9 = O=C([C@@H]1CCCN1C(=S)[C@H](Cc1ccccc1)N[*:1])[*:2]; X14 = C[C@H](N[*:1])C(=S)N[C@@H](Cc1ccccc1)C(=O)[*:2]; X15 = CC(C)C[C@@H](NC(=S)[C@H]1CCCN1[*:1])C(=O)[*:2]; X19 = CC(C)C[C@H](NC(=S)[C@@H]1CCCN1[*:1])C(=O)[*:2]; X18 = C[C@@H](N[*:1])C(=S)N1CCC[C@H]1C(=O)[*:2]; X20 = C[C@H](NC(=S)[C@@H](C)N[*:1])C(=O)[*:2]
# Key:
# physchem = conditions: pH 7.4
# [1] = Octanol-water distribution coefficient (logD7.4); conditions: octanol/water, pH 7.4
# [2] = type: physicochemical
# [3] = PAMPA passive permeability; type: in vitro ADME;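 further: passive permeability across an artificial membrane in 96-well pre-coated PAMPA plates, which lack transporters and efflux systems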
# Description: Encouraged by this, the passive permeability of the analogs was evaluated using an artificial membrane (PAMPA), which measures permeability of compounds in the absence of transporters and efflux systems[32].
# 96-well BD Corning® pre-coated PAMPA plates were used following the supplier’s protocol, details in Supplementary Information.
# in vitro = in vitro ADME, human; conditions: human; for Papp A→B: Caco-2, Papp A-B avg
# Description: (§1) The Caco-2 cell (HTB-37^TM from ATCC, procured from NCCS, Pune) monolayer was washed and pre-incubated at 37 °C and 5% CO2 for 30 min with HBSS-HEPES buffer containing 1% DMSO prior to experimentation. The assay was performed 21 days post-seeding of cells. TEER values were measured before starting and after the completion of the assay. Acceptor and donor well concentrations of the peptides and controls were assessed through LC-MS/MS.
# Caco-2 cells = assay: in vitro; type: in vitro ADME, human; conditions: Caco-2
# Description: as §1
# 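Wherever Papp A-B + Elacridar avg is given: Caco-2 monolayers used 21 days after seeding in HBSS-HEPES buffer with 1% DMSO, donor and acceptor levels quantified by LC-MS/MS, TEER checked before and after.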
# 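Wherever Papp A-B avg (second block) is given: Caco-2 monolayers used 21 days after seeding in HBSS-HEPES buffer with 1% DMSO, donor and acceptor levels quantified by LC-MS/MS, TEER checked before and after.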
# 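Wherever Papp A-B set 1 (second block) is given: Caco-2 monolayers used 21 days after seeding in HBSS-HEPES buffer with 1% DMSO, donor and acceptor levels quantified by LC-MS/MS, TEER checked before and after.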
# 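Wherever Papp A-B set 2 (second block) is given: Caco-2 monolayers used 21 days after seeding in HBSS-HEPES buffer with 1% DMSO, donor and acceptor levels quantified by LC-MS/MS, TEER checked before and after.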
smiles,measurement,setting,value
NCCCC[C@H](NC(=S)[C@@H](N)Cc1ccccc1)C(=O)O [1a],logD,physchem,-2.12
CN(C(=O)[C@@H](N)Cc1ccccc1)[C@@H](CCCCN)C(=O)O [1b],logD,physchem,-1.95
N[C@@H](Cc1ccccc1)C(=S)N[C@@H](CCC(=O)O)C(=O)O [2a],logD,physchem,-1.45
CN(C(=O)[C@@H](N)Cc1ccccc1)[C@@H](CCC(=O)O)C(=O)O [2b],logD,physchem,-2.14
N[C@@H](Cc1ccccc1)C(=S)NCC(=O)O [3a],logD,physchem,-1.61
CN(CC(=O)O)C(=O)[C@@H](N)Cc1ccccc1 [3b],logD,physchem,-1.73
C[C@H](NC(=S)[C@@H](N)Cc1ccccc1)C(=O)O [4a],logD,physchem,-1.76
C[C@@H](C(=O)O)N(C)C(=O)[C@@H](N)Cc1ccccc1 [4b],logD,physchem,-1.76
CC(C)[C@H](NC(=S)[C@@H](N)Cc1ccccc1)C(=O)O [5a],logD,physchem,-0.92
CC(C)[C@@H](C(=O)O)N(C)C(=O)[C@@H](N)Cc1ccccc1 [5b],logD,physchem,-0.62
CSCC[C@H](NC(=S)[C@@H](N)Cc1ccccc1)C(=O)O [6a],logD,physchem,-0.79
CSCC[C@@H](C(=O)O)N(C)C(=O)[C@@H](N)Cc1ccccc1 [6b],logD,physchem,-1.05
N[C@@H](Cc1ccccc1)C(=S)N[C@@H](Cc1c[nH]c2ccccc12)C(=O)O [7a],logD,physchem,0.13
CN(C(=O)[C@@H](N)Cc1ccccc1)[C@@H](Cc1c[nH]c2ccccc12)C(=O)O [7b],logD,physchem,0.21
C[C@@H]1NC(=O)[C@H](C)NC(=O)[C@H](C)NC(=S)[C@@H](C)NC(=O)[C@H](C)NC1=O [8a],logD,[1],-0.32
C[C@@H]1NC(=O)[C@H](C)NC(=S)[C@H](C)NC(=O)[C@@H](C)NC(=O)[C@H](C)NC1=O [8b],logD,[1],-0.14
C[C@@H]1NC(=O)[C@H](C)NC(=S)[C@H](C)NC(=O)[C@H](C)NC(=O)[C@@H](C)NC1=O [8c],logD,[1],-0.19
C[C@@H]1NC(=O)[C@H](C)NC(=O)[C@@H](C)NC(=O)[C@H](C)NC(=S)[C@H](C)NC1=O [8d],logD,[1],-0.23
C[C@@H]1NC(=O)[C@H](C)NC(=O)[C@@H](C)NC(=S)[C@H](C)NC(=O)[C@H](C)NC1=O [8e],logD,[1],-0.14
C[C@@H]1NC(=O)[C@H](C)NC(=O)[C@H](C)NC(=S)[C@@H](C)NC(=O)[C@H](C)NC(=O)[C@H](C)NC1=O [9a] (cyclo([X20]AAAA)),logD,[1],-0.67
C[C@@H]1NC(=O)[C@H](C)NC(=O)[C@H](C)NC(=S)[C@H](C)NC(=O)[C@@H](C)NC(=O)[C@H](C)NC1=O [9b],logD,[1],-0.7
C[C@@H]1NC(=O)[C@H](C)NC(=S)[C@H](C)NC(=O)[C@H](C)NC(=O)[C@@H](C)NC(=O)[C@H](C)NC1=O [9c],logD,[1],-0.59
C[C@@H]1NC(=O)[C@H](C)NC(=O)[C@@H](C)NC(=O)[C@H](C)NC(=O)[C@H](C)NC(=S)[C@H](C)NC1=O [9d],logD,[1],-0.67
C[C@@H]1NC(=O)[C@H](C)NC(=O)[C@@H](C)NC(=O)[C@H](C)NC(=S)[C@H](C)NC(=O)[C@H](C)NC1=O [9e],logD,[1],-0.54
C[C@@H]1NC(=O)[C@H](C)NC(=O)[C@H](C)NC(=O)[C@@H](C)NC(=S)[C@H](C)NC(=O)[C@H](C)NC1=O [9f],logD,[1],-0.24
CC[C@H](C)[C@@H]1NC(=O)[C@@H]2CCCN2C(=O)[C@H](Cc2ccccc2)NC(=O)[C@H](C)NC(=O)[C@H](C)NC(=S)[C@H]([C@@H](C)CC)NC(=O)[C@@H]2CCCN2C1=O [11a] (cyclo(AFPIP[X11])),% solubility,[2],74%
same,Pe Avg,[3],4.6 ×10⁻⁶ cm/s
same,Papp,[3]; Pe (PAMPA vs logD7.4),4.67 ×10⁻⁶ cm/s
same,logD,physchem,0.55
CC[C@H](C)[C@@H]1NC(=O)[C@@H]2CCCN2C(=O)[C@H]([C@@H](C)CC)NC(=O)[C@@H]2CCCN2C(=O)[C@H](Cc2ccccc2)NC(=O)[C@H](C)NC(=S)[C@H](C)NC1=O [11b] (cyclo(FPIPI[AlaΨ(CSNH)Ala])),% solubility,[2],93%
same,Papp,[3]; Pe (PAMPA vs logD7.4),0.42 ×10⁻⁶ cm/s
same,Papp,[3]; Pe Avg,0.4 ×10⁻⁶ cm/s
same,logD,physchem,0.28
CC[C@H](C)[C@@H]1NC(=O)[C@@H]2CCCN2C(=O)[C@H]([C@@H](C)CC)NC(=O)[C@@H]2CCCN2C(=O)[C@H](Cc2ccccc2)NC(=S)[C@H](C)NC(=O)[C@H](C)NC1=O [11c] (cyclo(A[X14]PIPI)),% solubility,[2],76%
same,Papp,[3]; Pe Avg,1 ×10⁻⁶ cm/s
same,logD,physchem,0.43
CC[C@H](C)[C@@H]1NC(=O)[C@@H]2CCCN2C(=O)[C@H]([C@@H](C)CC)NC(=O)[C@@H]2CCCN2C(=S)[C@H](Cc2ccccc2)NC(=O)[C@H](C)NC(=O)[C@H](C)NC1=O [11d] (cyclo(AA[X9]IPI)),% solubility,[2],85%
same,Papp,[3]; Pe Avg,0.4 ×10⁻⁶ cm/s
same,logD,physchem,0.33
CC[C@H](C)[C@@H]1NC(=O)[C@@H]2CCCN2C(=O)[C@H]([C@@H](C)CC)NC(=S)[C@@H]2CCCN2C(=O)[C@H](Cc2ccccc2)NC(=O)[C@H](C)NC(=O)[C@H](C)NC1=O [11e] (cyclo(AAF[X13]PI)),% solubility,[2],65%
same,Papp,[3]; Pe (PAMPA vs logD7.4),0.83 ×10⁻⁶ cm/s
same,Papp,[3]; Pe Avg,0.8 ×10⁻⁶ cm/s
same,logD,physchem,0.58
CC[C@H](C)[C@@H]1NC(=O)[C@@H]2CCCN2C(=S)[C@H]([C@@H](C)CC)NC(=O)[C@@H]2CCCN2C(=O)[C@H](Cc2ccccc2)NC(=O)[C@H](C)NC(=O)[C@H](C)NC1=O [11f] (cyclo(AAFP[X17]I)),% solubility,[2],76%
same,Papp,[3]; Pe Avg,1.1 ×10⁻⁶ cm/s
same,logD,physchem,0.37
CC[C@H](C)[C@@H]1NC(=S)[C@@H]2CCCN2C(=O)[C@H]([C@@H](C)CC)NC(=O)[C@@H]2CCCN2C(=O)[C@H](Cc2ccccc2)NC(=O)[C@H](C)NC(=O)[C@H](C)NC1=O [11g] (cyclo(AAFPI[X13])),% solubility,[2],93%
same,Papp,[3]; Pe (PAMPA vs logD7.4),0.35 ×10⁻⁶ cm/s
same,Papp,[3]; Pe Avg,0.3 ×10⁻⁶ cm/s
same,logD,physchem,0.29
CC(C)C[C@@H]1NC(=O)[C@@H](CC(C)C)NC(=O)[C@H]2CCCN2C(=O)[C@H](CC(C)C)NC(=S)[C@@H](CC(C)C)NC(=O)[C@H](CC(C)C)NC(=O)[C@@H]2CCCN2C(=O)[C@@H](C)NC1=O [12a] (cyclo(L[dA]PL[X2][dP][dL])),% solubility,[2],69%
same,Papp,[3]; Pe Avg,4.4 ×10⁻⁶ cm/s
same,logD,physchem,1.34
CC(C)C[C@@H]1NC(=O)[C@@H](CC(C)C)NC(=S)[C@H]2CCCN2C(=O)[C@H](CC(C)C)NC(=O)[C@@H](CC(C)C)NC(=O)[C@H](CC(C)C)NC(=O)[C@@H]2CCCN2C(=O)[C@@H](C)NC1=O [12c] (cyclo(L[dA]PL[dL]L[X15])),% solubility,[2],15%
same,Papp,[3]; Pe Avg,1.4 ×10⁻⁶ cm/s
same,logD,physchem,2.3
CC(C)C[C@@H]1NC(=O)[C@@H]2CCCN2C(=O)[C@@H](C)NC(=O)[C@H](CC(C)C)NC(=S)[C@@H](CC(C)C)NC(=O)[C@H]2CCCN2C(=O)[C@H](CC(C)C)NC(=O)[C@@H](CC(C)C)NC1=O [12d] (cyclo(L[dL]L[dP][X2][dA]P)),% solubility,[2],25%
same,Papp,[3]; Pe Avg,8.9 ×10⁻⁶ cm/s
same,logD,physchem,1.82
CC(C)C[C@@H]1NC(=O)[C@@H](CC(C)C)NC(=O)[C@H]2CCCN2C(=O)[C@H](CC(C)C)NC(=O)[C@@H](CC(C)C)NC(=O)[C@H](CC(C)C)NC(=O)[C@@H]2CCCN2C(=S)[C@@H](C)NC1=O [12f] (cyclo(L[dL]L[dP][dL]L[X18])),% solubility,[2],30%
same,Papp,[3]; Pe Avg,6.4 ×10⁻⁶ cm/s
same,logD,physchem,1.58
CC(C)C[C@@H]1NC(=O)[C@@H](CC(C)C)NC(=O)[C@H]2CCCN2C(=O)[C@H](CC(C)C)NC(=O)[C@@H](CC(C)C)NC(=O)[C@H](CC(C)C)NC(=S)[C@@H]2CCCN2C(=O)[C@@H](C)NC1=O [12g] (cyclo(L[dA][X19][dL]L[dP][dL])),% solubility,[2],46%
same,Papp,[3]; Pe Avg,10.2 ×10⁻⁶ cm/s
same,logD,physchem,1.59
"C[C@H]1O[C@@H](O[C@H]2[C@@H](O)C[C@H](O[C@H]3[C@@H](O)C[C@H](O[C@H]4CC[C@@]5(C)[C@H](CC[C@@H]6[C@@H]5C[C@@H](O)[C@]5(C)[C@@H](C7=CC(=O)OC7)CC[C@]65O)C4)O[C@@H]3C)O[C@@H]2C)C[C@H](O)[C@@H]1O [Digoxin, reference compound]",Papp A→B,in vitro,0.721 ×10⁻⁶ cm/s
same,Papp B→A,"in vitro; Caco-2, Papp B-A avg",29.5 ×10⁻⁶ cm/s
same,Papp A-B + Elacridar avg,Caco-2 cells,1.5 ×10⁻⁶ cm/s
same,Papp A-B avg (second block),Caco-2 cells,0.72 ×10⁻⁶ cm/s
same,Papp A-B set 1 (second block),Caco-2 cells,0.79 ×10⁻⁶ cm/s
same,Papp A-B set 2 (second block),Caco-2 cells,0.65 ×10⁻⁶ cm/s
same,Papp B-A + Elacridar avg,Caco-2 cells,6.2 ×10⁻⁶ cm/s
same,Papp B-A avg (second block),Caco-2 cells,29.5 ×10⁻⁶ cm/s
same,Papp B-A set 1 (second block),Caco-2 cells,28.5 ×10⁻⁶ cm/s
same,Papp B-A set 2 (second block),Caco-2 cells,30.4 ×10⁻⁶ cm/s
"CC(C)NCC(O)COc1cccc2ccccc12 (stereo not drawn) [Propranolol, reference compound]",Papp A→B,in vitro,16.6 ×10⁻⁶ cm/s
same,Papp A-B avg (second block),Caco-2 cells,16.6 ×10⁻⁶ cm/s
same,Papp A-B set 1 (second block),Caco-2 cells,17.28 ×10⁻⁶ cm/s
same,Papp A-B set 2 (second block),Caco-2 cells,15.87 ×10⁻⁶ cm/s
same,Papp B-A avg (second block),Caco-2 cells,34.1 ×10⁻⁶ cm/s
same,Papp B-A set 1 (second block),Caco-2 cells,37.6 ×10⁻⁶ cm/s
same,Papp B-A set 2 (second block),Caco-2 cells,30.7 ×10⁻⁶ cm/s
NCCCC[C@H](NC(=O)[C@@H](N)Cc1ccccc1)C(=O)O [compound 1],logD,physchem,-2.88
N[C@@H](Cc1ccccc1)C(=O)N[C@@H](CCC(=O)O)C(=O)O [compound 2] (H-Phe-Glu-OH),logD,physchem,-2.56
N[C@@H](Cc1ccccc1)C(=O)NCC(=O)O [compound 3] (H-Phe-Gly-OH),logD,physchem,-2.22
CC(C)[C@H](NC(=O)[C@@H](N)Cc1ccccc1)C(=O)O [compound 5] (H-Phe-Val-OH),logD,physchem,-1.28
CSCC[C@H](NC(=O)[C@@H](N)Cc1ccccc1)C(=O)O [compound 6] (H-Phe-Met-OH),logD,physchem,-1.41
N[C@@H](Cc1ccccc1)C(=O)N[C@@H](Cc1c[nH]c2ccccc12)C(=O)O [compound 7] (H-Phe-Trp-OH),logD,physchem,-0.65
"C[C@@H]1NC(=O)[C@H](C)NC(=O)[C@H](C)NC(=O)[C@@H](C)NC(=O)[C@H](C)NC1=O [compound 8, cyclo(-D-Ala-L-Ala4-)]",logD,[1],-1.46
"C[C@@H]1NC(=O)[C@H](C)NC(=O)[C@H](C)NC(=O)[C@@H](C)NC(=O)[C@H](C)NC(=O)[C@H](C)NC1=O [compound 9, cyclo(-D-Ala-L-Ala5-)]",logD,[1],-2.48
